Measurements taken from PubChem BioAssay AID330 (DTP/NCI, 2004).
Where “and” joins values, the source holds several entries; their conditions need not be identical. Equal values may be shown once. Inconclusive results and toxic doses are left out.

Tested on: P388 leukemia ip, CD2F1 mice, survival T/C
Experiment: NCI In Vivo Anticancer Drug Screen. Data for tumor model P388 Leukemia (intraperitoneal) in CD2F1 (CDF1) mice
Details: endpoint: median survival time, higher = longer survival
How it was run: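 Mice carrying the transplanted tumor received test compound or vehicle. Survival was recorded in each group, and the value is the treated-group measurement divided by that of the vehicle-treated control group.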

[1] = dose: 12.5 mg/kg/injection, schedule: Q01DX009 (ip), vehicle: Klucel (hydroxypropylcellulose) (HPC)
[2] = dose: 50.0 mg/kg/injection, schedule: Q01DX009 (ip), vehicle: saline with Tween-80
[3] = dose: 100.0 mg/kg/injection, schedule: Q01DX009 (ip), vehicle: saline with Tween-80
[4] = dose: 200.0 mg/kg/injection, schedule: Q01DX009 (ip), vehicle: saline with Tween-80
[5] = dose: 12.5 mg/kg/injection, schedule: Q01DX009 (ip), vehicle: saline with Tween-80
[6] = dose: 50.0 mg/kg/injection, schedule: Q01DX009 (ip), vehicle: Klucel (hydroxypropylcellulose) (HPC)
[7] = dose: 100.0 mg/kg/injection, schedule: Q01DX009 (ip), vehicle: Klucel (hydroxypropylcellulose) (HPC)
[8] = dose: 100.0 mg/kg/injection, schedule: Q04DX003 (ip), vehicle: Klucel (hydroxypropylcellulose) (HPC)
[9] = dose: 200.0 mg/kg/injection, schedule: Q04DX003 (ip), vehicle: Klucel (hydroxypropylcellulose) (HPC)
[10] = dose: 400.0 mg/kg/injection, schedule: Q04DX003 (ip), vehicle: Klucel (hydroxypropylcellulose) (HPC)
[11] = dose: 50.0 mg/kg/injection, schedule: Q04DX003 (ip), vehicle: saline with Tween-80
[12] = dose: 100.0 mg/kg/injection, schedule: Q04DX003 (ip), vehicle: saline with Tween-80
[13] = dose: 200.0 mg/kg/injection, schedule: Q04DX003 (ip), vehicle: saline with Tween-80
[14] = dose: 50.0 mg/kg/injection, schedule: Q01DX009 (ip), vehicle: saline
[15] = dose: 100.0 mg/kg/injection, schedule: Q01DX009 (ip), vehicle: saline
[16] = dose: 50.0 mg/kg/injection, schedule: Q01DX005 (ip), vehicle: saline with Tween-80
[17] = dose: 100.0 mg/kg/injection, schedule: Q01DX005 (ip), vehicle: saline with Tween-80
[18] = dose: 200.0 mg/kg/injection, schedule: Q01DX005 (ip), vehicle: saline with Tween-80

O=C(CCl)NNC(=O)CCl
T/C [1]: 117 % of control

COC(=O)C1=C/C=C\CN(C=O)/C=C\1C(=O)OC
T/C (dose: 100.0 mg/kg/injection, schedule: Q01DX001 (ip), vehicle: alcohol): 101 % of control
T/C (dose: 200.0 mg/kg/injection, schedule: Q01DX001 (ip), vehicle: alcohol): 92 % of control
T/C (dose: 400.0 mg/kg/injection, schedule: Q01DX001 (ip), vehicle: alcohol): 101 % of control

CCCOC(=O)c1ccccc1C(=O)O
T/C [2]: 105 % of control
T/C [3]: 104 % of control
T/C [4]: 101 % of control

Cc1ccc(S(=O)(=O)N/N=C/C(=O)O)cc1
T/C (dose: 6.25 mg/kg/injection, schedule: Q01DX009 (ip), vehicle: Klucel (hydroxypropylcellulose) (HPC)): 110 % of control and 119 % of control
T/C (dose: 6.25 mg/kg/injection, schedule: Q01DX009 (ip), vehicle: other): 106 % of control
T/C (dose: 6.25 mg/kg/injection, schedule: Q01DX009 (ip), vehicle: water): 108 % of control
T/C [1]: 114 % of control and 117 % of control and 122 % of control
T/C [5]: 121 % of control
T/C [6]: 152 % of control
T/C [7]: 104 % of control and 119 % of control and 117 % of control
T/C [3]: 107 % of control

O=C1NC2NC(=O)NC2N1 (stereo not drawn)
T/C [8]: 94 % of control
T/C [9]: 107 % of control
T/C [10]: 100 % of control

COc1cc2c(cc1[N+](=O)[O-])C(=O)C(Br)(Br)CCC2
T/C [6]: 116 % of control
T/C [7]: 119 % of control

C=C1CCN(c2ccc(F)cc2)C1=O
T/C (dose: 4.0 mg/kg/injection, schedule: Q01DX009 (ip), vehicle: saline + alcohol): 100 % of control and 103 % of control and 90 % of control
T/C (dose: 8.0 mg/kg/injection, schedule: Q01DX009 (ip), vehicle: saline + alcohol): 104 % of control and 107 % of control and 94 % of control
T/C (dose: 16.0 mg/kg/injection, schedule: Q01DX009 (ip), vehicle: saline + alcohol): 110 % of control and 97 % of control
T/C (dose: 32.0 mg/kg/injection, schedule: Q01DX009 (ip), vehicle: saline + alcohol): 98 % of control and 103 % of control and 104 % of control
T/C (dose: 64.0 mg/kg/injection, schedule: Q01DX009 (ip), vehicle: saline + alcohol): 98 % of control and 100 % of control and 95 % of control

CC1(C)CC([P+](c2ccccc2)(c2ccccc2)c2ccccc2)=NN1
T/C (dose: 0.78 mg/kg/injection, schedule: Q01DX009 (ip), vehicle: saline with Tween-80): 115 % of control and 119 % of control
T/C (dose: 12.5 mg/kg/injection, schedule: Q01DX001 (ip), vehicle: saline): 123 % of control
T/C [5]: 100 % of control
T/C (dose: 25.0 mg/kg/injection, schedule: Q01DX001 (ip), vehicle: saline): 122 % of control

Cc1ccc(C=C2c3ccccc3C(=O)c3ccccc32)cc1
T/C (dose: 50.0 mg/kg/injection, schedule: Q01DX005 (ip), vehicle: Klucel (hydroxypropylcellulose) (HPC)): 108 % of control
T/C (dose: 100.0 mg/kg/injection, schedule: Q01DX005 (ip), vehicle: Klucel (hydroxypropylcellulose) (HPC)): 107 % of control
T/C (dose: 200.0 mg/kg/injection, schedule: Q01DX005 (ip), vehicle: Klucel (hydroxypropylcellulose) (HPC)): 105 % of control

CCCC(=O)C(=O)c1ccc(O)c(C)c1O
T/C [2]: 101 % of control
T/C [3]: 99 % of control
T/C [4]: 102 % of control

Nc1nc(N)c(-c2cccc(Cl)c2)c(CBr)n1
T/C [5]: 113 % of control
T/C (dose: 25.0 mg/kg/injection, schedule: Q01DX009 (ip), vehicle: saline with Tween-80): 114 % of control

Cc1ccc(C(=Nc2ccccc2)N=S(c2ccccc2)c2ccccc2)cc1
T/C [11]: 97 % of control
T/C [12]: 92 % of control
T/C [13]: 97 % of control

CN(C)c1ccc(N=Nc2ccc3cc4ccccc4cc3c2)cc1
T/C (dose: 25.0 mg/kg/injection, schedule: Q04DX003 (ip), vehicle: saline with Tween-80): 101 % of control
T/C [11]: 105 % of control

Nc1ccc(S(=O)(=O)Nc2c(N)[nH]c(=S)[nH]c2=O)cc1
T/C (dose: 15.0 mg/kg/injection, schedule: Q01DX005 (ip), vehicle: Klucel (hydroxypropylcellulose) (HPC)): 97 % of control
T/C (dose: 15.0 mg/kg/injection, schedule: Q01DX005 (ip), vehicle: saline with Tween-80): 115 % of control
T/C (dose: 30.0 mg/kg/injection, schedule: Q01DX005 (ip), vehicle: Klucel (hydroxypropylcellulose) (HPC)): 97 % of control
T/C (dose: 30.0 mg/kg/injection, schedule: Q01DX005 (ip), vehicle: saline with Tween-80): 105 % of control
T/C (dose: 60.0 mg/kg/injection, schedule: Q01DX005 (ip), vehicle: Klucel (hydroxypropylcellulose) (HPC)): 92 % of control
T/C (dose: 60.0 mg/kg/injection, schedule: Q01DX005 (ip), vehicle: saline with Tween-80): 98 % of control
T/C (dose: 120.0 mg/kg/injection, schedule: Q01DX005 (ip), vehicle: Klucel (hydroxypropylcellulose) (HPC)): 100 % of control
T/C (dose: 120.0 mg/kg/injection, schedule: Q01DX005 (ip), vehicle: saline with Tween-80): 100 % of control

CNC1=C(C)C(=O)C(C)=C(C(C)(C)CC(=O)n2cc(F)c(=O)[nH]c2=O)C1=O
T/C (dose: 100.0 mg/kg/injection, schedule: Q01DX001 (ip), vehicle: saline with Tween-80): 117 % of control
T/C (dose: 200.0 mg/kg/injection, schedule: Q01DX001 (ip), vehicle: saline with Tween-80): 122 % of control

COC(=O)/C(C#N)=C1\C(=O)OCC1(C)C
T/C (dose: 100.0 mg/kg/injection, schedule: Q04DX003 (ip), vehicle: saline): 104 % of control
T/C (dose: 200.0 mg/kg/injection, schedule: Q04DX003 (ip), vehicle: saline): 94 % of control
T/C (dose: 400.0 mg/kg/injection, schedule: Q04DX003 (ip), vehicle: saline): 98 % of control

CCOC(=O)C12C3CC4C1C1(Cl)C(Cl)(Cl)C2(Cl)C2(Cl)C3C4C12Cl (stereo not drawn)
T/C (dose: 100.0 mg/kg/injection, schedule: Q04DX002 (ip), vehicle: saline with Tween-80): 94 % of control
T/C (dose: 200.0 mg/kg/injection, schedule: Q04DX002 (ip), vehicle: saline with Tween-80): 93 % of control
T/C (dose: 400.0 mg/kg/injection, schedule: Q04DX002 (ip), vehicle: saline with Tween-80): 109 % of control

CCCCCCC(/C=C/c1ccc(Cl)c(Cl)c1)=N\NC(=O)C(N)=O
T/C [14]: 101 % of control
T/C [15]: 101 % of control
T/C (dose: 200.0 mg/kg/injection, schedule: Q01DX009 (ip), vehicle: saline): 110 % of control

NCc1c(Cl)c(Cl)c(CN)c(Cl)c1Cl
T/C [2]: 91 % of control
T/C [11]: 91 % of control
T/C [3]: 91 % of control
T/C [12]: 91 % of control
T/C [13]: 87 % of control

C[C@]12CCC(=O)C=C1CC[C@@H]1[C@@H]2[C@@H](O)C[C@@]2(C)[C@H]1CC[C@]2(O)C(=O)COC(=O)COCC(=O)O
T/C [12]: 104 % of control
T/C [13]: 100 % of control
T/C (dose: 400.0 mg/kg/injection, schedule: Q04DX003 (ip), vehicle: saline with Tween-80): 116 % of control

CC(=O)Oc1cccn(C)c1=O
T/C (dose: 37.5 mg/kg/injection, schedule: Q01DX009 (ip), vehicle: saline): 108 % of control
T/C (dose: 75.0 mg/kg/injection, schedule: Q01DX009 (ip), vehicle: saline): 103 % of control
T/C (dose: 150.0 mg/kg/injection, schedule: Q01DX009 (ip), vehicle: saline): 113 % of control
T/C (dose: 300.0 mg/kg/injection, schedule: Q01DX009 (ip), vehicle: saline): 119 % of control
T/C (dose: 500.0 mg/kg/injection, schedule: Q01DX009 (ip), vehicle: saline): 117 % of control

O=C(Nc1ccc(Cl)c(C(F)(F)F)c1)Nc1c(Oc2ccc(Cl)c(Cl)c2)ccc(Cl)c1S(=O)(=O)O
T/C (dose: 25.0 mg/kg/injection, schedule: Q01DX009 (ip), vehicle: saline): 118 % of control
T/C [14]: 118 % of control
T/C [15]: 118 % of control

C/C(N=NC(=S)N1CCC(C)CC1)=C1\C=CC=CN1O
T/C [16]: 103 % of control
T/C [17]: 103 % of control
T/C [18]: 108 % of control

CN(Cc1c(O)ccc2ccccc12)Cc1c(O)ccc2ccccc12
T/C [16]: 97 % of control
T/C [17]: 109 % of control
T/C [18]: 100 % of control

COc1ccc(CN2COc3c(ccc4cccnc34)C2)cc1
T/C [8]: 93 % of control
T/C [9]: 93 % of control
T/C [10]: 111 % of control

CCCCCCCCCCCCOC(=O)/C=C\C(=O)NC(N)=O
T/C (dose: 100.0 mg/kg/injection, schedule: Q04DX002 (ip), vehicle: Klucel (hydroxypropylcellulose) (HPC)): 117 % of control
T/C (dose: 200.0 mg/kg/injection, schedule: Q04DX002 (ip), vehicle: Klucel (hydroxypropylcellulose) (HPC)): 123 % of control
